{
  "source": "patent US11400089B2",
  "about": "“Multikinase inhibitors and uses in reproductive and digestive tract fibrosis” (AIVIVA BIOPHARMA, INC., priority 2017, dated 2022)",
  "key": {"[1]": {"test_system": "testosterone and phenylephrine induced benign prostate hyperplasia", "assay": "testosterone and phenylephrine induced benign prostate hyperplasia in rats (Example 1)", "type": "in vivo, Male Wistar rats", "conditions": "for epithelial hyperplasia score, representative image of dorsolateral prostate: FIG. 2; for mean dorsolateral prostate hyperplasia scores compared to vehicle treatment: induced rats, intra-prostate days 15 and 29, axitinib, sorafenib, FIG. 3; for mean prostate weight (prostate weight/100 g body weight): day 42, FIG. 1", "protocol": "Wistar and Sprague-Dawley strains of rats are susceptible to developing benign prostatic hyperplasia after treatment with exogenous testosterone and can serve as a model of hyperplasia induced by endogenous hormones, i.e., BPH in males and uterine fibroids (UF) in females. A study was conducted to determine the effects of test compounds and vehicle on testosterone and phenylephrine induced benign prostate hyperplasia in rats. Male Wistar rats were induced with testosterone (2 mg/kg) plus phenylephrine (5 mg/kg) administered daily by subcutaneous injection on days 1 through 28. Vehicle or the multikinase test compounds, axitinib (1%), sorafenib (1%), pirfenidone (2.5%) and riociguat (1%), were administered by intra-prostate injection (0.2 mL) on days 15 and 29. Animals were euthanized on day 42. Body weights were determined. Prostate glands were harvested and weighed.\nProstate weight/100 g body weight was determined for each treatment group (FIG. 1). […] Rather, only multikinase inhibitors with a certain inhibitory spectrum would work.\nAt necropsy, the dorsolateral and ventral lobes of the prostate were separated and cut into halves. The left halves were fixed in 10% neutral buffered formalin, sectioned, and stained with Hematoxylin and Eosin (H&E). Glandular hyperplasia was recognized as an increase in epithelial cells within normal appearing gland profiles, reflected by stratification of epithelial cells and increased presence of epithelial tufting and papillary projections (FIG. 2). Stromal changes were examined microscopically. These changes included inflammation and tissue fibroplasia. Each section was given a severity score ranging from 0 (not present) through 5 (severe)."}, "[2]": {"test_system": "full-thickness dermal wounds", "assay": "full-thickness dermal wounds in rabbit ear, histopathology (Example 5)", "type": "in vivo, New Zealand White rabbits", "set-up": "average total score of test wounds lower than untreated/control wounds by / Neovascularization (histopathology score, treated mean) / Fibrosis/Collagen (histopathology score, treated mean) / Reepithelialization (histopathology score, treated mean) / Total Score (histopathology, treated mean): scale not given here", "conditions": "for Fibrosis/Collagen (histopathology score, treated mean) / Neovascularization (histopathology score, treated mean) / Reepithelialization (histopathology score, treated mean) / Total Score (histopathology, treated mean): 1% intradermal dosing days 15 and 29, Day 42", "protocol": "Test compounds were examined in full-thickness dermal wounds in rabbits. Seven male New Zealand White rabbits, ranging in body weight from 3.03 to 3.40 kg were used in this study. Four wounds were placed on the ventral surface of both ears using an 8 mm skin punch biopsy. Axitinib (1.0%), nintedanib (1.0%), lenvatinib (1.0%), sorafenib (1.0%) and sunitinib (1.0%) were administered by intradermal or intralesional injection on days 15 and 29 following surgery. Animals were euthanized on Day 42 and trauma sites were harvested and divided in half. One half was preserved in formalin for histological examination and the other half frozen for TGF beta analysis. Tissue H&E staining was evaluated semi-quantitatively for inflammation and neovascularization. Tissue fibrosis and collagen organization were evaluated by Mason's trichrome staining. Scores for four intradermal sites receiving test articles were averaged for each rabbit. Most scar tissues were composed of neovascularization, fibroblast hyperplasia, collagen disorganization and re-epithelialization."}, "[3]": {"test_system": "testosterone and phenylephrine induced benign prostate hyperplasia", "assay": "testosterone and phenylephrine induced benign prostate hyperplasia in rats (Example 3)", "type": "in vivo, Male Wistar rats", "conditions": "for epithelial (glandular) hyperplasia score, dorsolateral prostate, representative image: grade 0 (not present) to 5 (severe), FIG. 4", "protocol": "This study was conducted to determine the effects of multikinase inhibitors and vehicle on testosterone and phenylephrine induced benign prostate hyperplasia in rats. Male Wistar rats were induced with testosterone (2 mg/kg) plus phenylephrine (5 mg/kg) administered daily by subcutaneous injection on days 5 through 32. Vehicle or test compounds (all 1% w/v), nintedanib, sunitinib or lenvatinib and doxazosin mesylate, were administered by intra-prostate injection (0.4 ml) in dorsolateral and ventral lobes on days 1 and 18. Animals were euthanized on day 32.\nAt necropsy, the ventral and dorsolateral lobes of the prostate were separated and then cut into halves. The left halves were fixed in 10% neutral buffered formalin, sectioned, and stained with Hematoxylin and Eosin (H&E). Histological changes in these sections were scored. Epithelial hyperplasia was recognized as an increase in epithelial cells within normal-appearing gland profiles, primarily reflected by stratification of epithelial cells and increased presence of epithelial tufting and papillary projections. A severity grade of 0 (not present) through 5 (severe) was assigned to each sample."}, "TGF beta mRNA expression": {"test_system": "TGF beta mRNA expression", "assay": "TGF beta mRNA expression in rabbit dermal wound model (Example 5)", "type": "in vivo, New Zealand White rabbits", "conditions": "1% intradermal days 15 and 29; Day 42; FIG. 10", "protocol": "Test compounds were examined in full-thickness dermal wounds in rabbits. Seven male New Zealand White rabbits, ranging in body weight from 3.03 to 3.40 kg were used in this study. Four wounds were placed on the ventral surface of both ears using an 8 mm skin punch biopsy. Axitinib (1.0%), nintedanib (1.0%), lenvatinib (1.0%), sorafenib (1.0%) and sunitinib (1.0%) were administered by intradermal or intralesional injection on days 15 and 29 following surgery. Animals were euthanized on Day 42 and trauma sites were harvested and divided in half. One half was preserved in formalin for histological examination and the other half frozen for TGF beta analysis.\nTGF beta mRNA expression in treated trauma samples was compared to expression in untreated samples. In general, TGF beta expression in treated samples was lower relative to untreated trauma samples."}, "[4]": {"test_system": "suture induced ocular fibrosis", "assay": "suture induced ocular fibrosis model in rabbits (Example 4)", "type": "in vivo", "protocol": "A study was conducted to determine the potential beneficial effects of topical administration of test compounds and vehicle in a suture induced ocular fibrosis model in rabbits. Sutures were placed intrastromally, under a microscope, in the cornea of rabbits. In each eye, one 9.0 silk suture was placed, in a vertical position, temporal to the center of the cornea and a second suture was placed nasal to the corneal center. Each suture had two stromal incursions approximately 2 mm from the limbus. Test compounds having a certain spectrum of multikinase inhibition activities or vehicle were topically instilled (35 μL/eye) in the eyes three times daily for 10 days following the day of surgery. The treatment groups include vehicle, axitinib (0.3%), nintedanib (0.3%), pirfenidone (1%), riociguat (0.3%), sorafenib (0.3%) and lenvatinib (0.3%). Six left eyes were used per treatment group.\nDuring the in-life phase, gross ocular observations of very slight to moderate conjunctival congestion and swelling were similar among groups, including the vehicle control. The animals were sacrificed on Day 11 and eyes enucleated and dissected for histopathological evaluation."}, "[5]": {"test_system": "TGF beta 1 protein levels", "assay": "TGF beta 1 protein level (ELISA) in pig linear incision wound model (Example 6)", "type": "in vivo, Gottingen minipigs", "conditions": "16 mg per wound site intradermal; Days 4, 7 and 9; FIG. 11", "protocol": "Full-thickness linear incision wounds were created in Gottingen minipigs on Day 1. 10 wounds approximately 3 cm in length and spaced at least 5 cm apart were created on the dorsal surface of the animals, perpendicular to the spine. Test agents included nintedanib (2%), lenvatinib (2%), sorafenib (1%), axitinib (2%) and vehicle control. Test agents were administered by intradermal injection immediately after wound creation. The dose of nintedanib, lenvatinib, sorafenib, or axitinib was 16 mg per wound site. Three minipigs were dosed in a similar manner. One minipig was sacrificed on Day 4, one on Day 7, and one on Day 9.\nAt the time of sacrifice, two dermal punch biopsies (4 mm) from each side of the wound sites were collected. Two biopsies were flash frozen in liquid nitrogen and stored at −80° C. prior to processing by protein extraction and ELISA (enzyme-linked immunosorbent assay) analysis. TGF beta protein levels were measured on Days 4, 7 and 9."}, "[6]": {"conditions": "TE+PE induced rats, axitinib 1%, sorafenib 1%, pirfenidone 2.5%, severity score 0 (not present) to 5 (severe), induced vehicle group score=2"}, "[7]": {"conditions": "TE+PE induced rats, intra-prostate 0.4 ml days 1 and 18, day 32, induced vehicle score=4"}, "[8]": {"conditions": "1% intradermal, rabbit ear wound"}},
  "note": "Counter-ions that a name gives are not always drawn.",
  "data": [
    {"smiles": "CNC(=O)c1ccccc1Sc1ccc2c(/C=C/c3ccccn3)n[nH]c2c1", "note": "[axitinib]", "values": [
      {"measurement": "epithelial hyperplasia score, representative image of dorsolateral prostate", "setting": "[1]; [6]", "result": 1},
      {"measurement": "Fibrosis/Collagen (histopathology score, treated mean)", "setting": "[2]; rabbit ear wound", "result": 3.3},
      {"measurement": "Neovascularization (histopathology score, treated mean)", "setting": "[2]; rabbit ear wound", "result": 1},
      {"measurement": "Reepithelialization (histopathology score, treated mean)", "setting": "[2]; rabbit ear wound", "result": 0.3},
      {"measurement": "Total Score (histopathology, treated mean)", "setting": "[2]; rabbit ear wound", "result": 4.6},
      {"measurement": "average total score of test wounds lower than untreated/control wounds by", "setting": "[2]; 1% intradermal, difference treated vs control", "result": 1.4}
    ]},
    {"smiles": "COc1cc2nc(N3CCN(C(=O)C4COc5ccccc5O4)CC3)nc(N)c2cc1OC", "note": "(centres unmarked) [doxazosin, doxazosin mesylate]", "values": [
      {"measurement": "epithelial (glandular) hyperplasia score, dorsolateral prostate, representative image", "setting": "[3]; [7]", "result": 3},
      {"measurement": "epithelial (glandular) hyperplasia score, ventral prostate, representative image", "setting": "[3]; TE+PE induced rats, intra-prostate 0.4 ml days 1 and 18, day 32, grade 0 to 5, induced vehicle score=4, FIG. 5", "result": 3}
    ]},
    {"smiles": "Cc1ccc(=O)n(-c2ccccc2)c1", "note": "[pirfenidone]", "values": [
      {"measurement": "epithelial hyperplasia score, representative image of dorsolateral prostate", "setting": "[1]; [6]", "result": 1},
      {"measurement": "mean dorsolateral prostate hyperplasia scores compared to vehicle treatment", "setting": "[1]; riociguat 1%, pirfenidone 2.5%", "result": "demonstrated a decrease in hyperplasia scores"}
    ]},
    {"smiles": "COC(=O)N(C)c1c(N)nc(-c2nn(Cc3ccccc3F)c3ncccc23)nc1N", "note": "[riociguat]", "values": [
      {"measurement": "epithelial hyperplasia score, representative image of dorsolateral prostate", "setting": "[1]; TE induced rat, riociguat 1%, severity score 0 to 5, TE-induced group 6 score=2", "result": 1},
      {"measurement": "mean prostate weight (prostate weight/100 g body weight)", "setting": "[1]; TE induced rats, riociguat 1% intra-prostate days 15 and 29, compared to group 6", "result": "resulted in a reduction in the mean prostate weight"},
      {"measurement": "mean dorsolateral prostate hyperplasia scores compared to vehicle treatment", "setting": "[1]; riociguat 1%, pirfenidone 2.5%", "result": "demonstrated a decrease in hyperplasia scores"}
    ]},
    {"smiles": "CNC(=O)c1cc(Oc2ccc(NC(=O)Nc3ccc(Cl)c(C(F)(F)F)c3)cc2)ccn1", "note": "[sorafenib]", "values": [
      {"measurement": "mean folds of TGF beta mRNA expression vs untreated trauma samples", "setting": "TGF beta mRNA expression", "result": "do not show mean TGF beta expression levels significantly different from the untreated trauma samples"},
      {"measurement": "areas of neovascularization on the corneal surface", "setting": "[4]; 0.3% topical 35 μL/eye three times daily for 10 days, FIG. 8", "result": "efficacious in reducing the areas of neovascularization"},
      {"measurement": "fibroplasia and/or collagen density (histological staining)", "setting": "[4]; 0.3% topical three times daily for 10 days, Day 11, FIG. 9", "result": "little or no effect on fibroplasia or collagen formation"},
      {"measurement": "alpha SMA staining (immunohistochemical analysis)", "setting": "[4]; 0.3% topical three times daily for 10 days, relative to vehicle, FIG. 9", "result": "no effect on alpha SMA relative to vehicle treatment"},
      {"measurement": "mean prostate weight (prostate weight/100 g body weight)", "setting": "[1]; TE+PE induced rats, 1% test article, intra-prostate 0.2 mL days 15 and 29, compared to vehicle-treated group 1", "result": "did not show a reduction in the mean prostate weight"},
      {"measurement": "epithelial hyperplasia score, representative image of dorsolateral prostate", "setting": "[1]; [6]", "result": 2},
      {"measurement": "mean dorsolateral prostate hyperplasia scores compared to vehicle treatment", "setting": "[1]; riociguat 1%, pirfenidone 2.5%", "result": "did not lead to reduction in hyperplasia"},
      {"measurement": "TGF beta 1 protein levels in wound", "setting": "[5]", "result": "much less effective"},
      {"measurement": "Fibrosis/Collagen (histopathology score, treated mean)", "setting": "[2]; rabbit ear wound", "result": 2.5},
      {"measurement": "Neovascularization (histopathology score, treated mean)", "setting": "[2]; rabbit ear wound", "result": 3},
      {"measurement": "Reepithelialization (histopathology score, treated mean)", "setting": "[2]; rabbit ear wound", "result": 0.3},
      {"measurement": "Total Score (histopathology, treated mean)", "setting": "[2]; rabbit ear wound", "result": 5.8},
      {"measurement": "angiogenesis and fibrosis at treated trauma sites (histopathology summary)", "setting": "[2]; [8]", "result": "do not show any reduction in angiogenesis and fibrosis"},
      {"measurement": "fibrosis compared with control wound sites", "setting": "[2]; [8]", "result": "similar, or increased fibrosis compared to control sites"},
      {"measurement": "neovascularization compared with untreated wounds", "setting": "[2]; [8]", "result": "slightly increased neovascularization"},
      {"measurement": "scar formation overall compared with control sites", "setting": "[2]; [8]", "result": "does not appear to have reduced scar formation"}
    ]},
    {"smiles": "CCN(CC)CCNC(=O)c1c(C)[nH]c(/C=C2\\C(=O)Nc3ccc(F)cc32)c1C", "note": "[sunitinib]", "values": [
      {"measurement": "epithelial (glandular) hyperplasia score, ventral prostate, representative image", "setting": "[3]; 768 h", "result": 3},
      {"measurement": "epithelial (glandular) hyperplasia score, dorsolateral prostate, representative image", "setting": "[3]; [7]", "result": 3},
      {"measurement": "Fibrosis/Collagen (histopathology score, treated mean)", "setting": "[2]; rabbit ear wound", "result": 3.7},
      {"measurement": "Neovascularization (histopathology score, treated mean)", "setting": "[2]; rabbit ear wound", "result": 4},
      {"measurement": "Reepithelialization (histopathology score, treated mean)", "setting": "[2]; rabbit ear wound", "result": 0},
      {"measurement": "Total Score (histopathology, treated mean)", "setting": "[2]; rabbit ear wound", "result": 7.7}
    ]}
  ]
}
